One data set deals with breast cancer models. As to conditions: daily by oral gavage, 70 mg/kg; cited from earlier work.
A further data set has as its target LOXL3 (Homo sapiens, UniProt P58215). The following applies: cited from earlier work.
For data set [1], the target named is T1, LOXL2 (Homo sapiens, UniProt Q9Y4K0).
T1 sequence (Q9Y4K0 26-774): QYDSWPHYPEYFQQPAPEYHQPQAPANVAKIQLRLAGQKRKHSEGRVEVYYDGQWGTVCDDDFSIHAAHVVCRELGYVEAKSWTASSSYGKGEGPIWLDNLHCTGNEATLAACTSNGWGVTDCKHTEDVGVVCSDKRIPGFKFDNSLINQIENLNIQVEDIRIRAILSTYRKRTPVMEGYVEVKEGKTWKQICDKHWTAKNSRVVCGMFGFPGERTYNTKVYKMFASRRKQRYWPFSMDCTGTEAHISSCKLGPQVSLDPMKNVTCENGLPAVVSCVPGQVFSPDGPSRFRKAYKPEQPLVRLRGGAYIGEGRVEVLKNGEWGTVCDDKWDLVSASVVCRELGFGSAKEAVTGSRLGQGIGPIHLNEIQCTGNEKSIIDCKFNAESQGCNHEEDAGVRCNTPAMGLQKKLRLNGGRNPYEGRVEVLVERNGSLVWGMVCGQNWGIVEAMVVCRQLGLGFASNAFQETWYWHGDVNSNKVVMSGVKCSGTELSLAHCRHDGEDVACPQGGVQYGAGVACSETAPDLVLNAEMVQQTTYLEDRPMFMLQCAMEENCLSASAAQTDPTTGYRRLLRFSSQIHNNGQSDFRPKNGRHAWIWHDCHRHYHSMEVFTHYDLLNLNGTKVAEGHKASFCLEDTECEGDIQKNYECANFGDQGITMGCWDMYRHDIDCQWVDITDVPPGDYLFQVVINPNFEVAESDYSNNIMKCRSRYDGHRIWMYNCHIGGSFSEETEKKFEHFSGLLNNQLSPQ
As to conditions: cited from earlier work.

Data set [2] concerns LOXL2-mediated collagen oxidation and cross-linking. The following applies: in vitro; cited from earlier work.
The conditions of data set [3]: human, in vivo; cited from earlier work.
Data set [4] deals with kidney fibrosis, lung fibrosis, myelofibrosis and pancreatic cancer models. As to conditions: in vivo; cited from earlier work.
The next data set has as its system MCF12A. In words: Viability assay in normal cells. Format: cell-based, human. As to conditions: normal breast cell line. From the text:
(§1) FIG. 32. 6232 derivatives, 6403 and 6415, show no cytotoxicity in normal cells. Viability assay in normal breast cell line, MCF12A, human foreskin fibroblast cell line, HFF and human endothelial cell line, HUVEC treated with 6403 or 6415.

The subject of data set [5] is MDA-MB-231 cells embedded in collagen I. In words: ECM crosslinking by collagen and fibronectin immunofluorescence staining. It is filed as cell-based, human. The method, then:
FIG. 31. […] A. Inhibition of LOX activity in MDA-MB-231 cells treated with 5 μM of the LOX inhibitors. B. Doxorubicin sensitization with 6232 and its analogs, 6403 and 6415, in 3D collagen-I culture. C. Collagen and fibronectin staining of vehicle or 6232 or 6403 or 6415-treated MDA-MB-231 cells embedded in collagen I. BAPN is used as a positive control.
Immunofluorescence staining of cells was done in μ-Slide 8-well glass bottom chambers (Ibidi, Germany). Cells were fixed with 4% paraformaldehyde for 20 min, permeabilized with 0.5% Triton X-100 for 10 min and blocked in 5% BSA-PBS. Samples were incubated with primary (Collagen I, Fibronectin, F-actin, a-SMA) and secondary Alexa Fluor 647 or 488-labeled antibodies for 1.5 hours at room temperature. Cells were also counterstained with DAPI for 5 min. Images were acquired using ZEN 2012 SP5 (Black) LSM 700 (Carl Zeiss, DE).

The next data set concerns HFF. In words: Viability assay in normal cells. Format: cell-based. As to conditions: human foreskin fibroblast cell line.
Text: as §1

A further data set has as its system HUVEC. In words: Viability assay in normal cells. It is filed as cell-based. As to conditions: human endothelial cell line.
Text: as §1

Data set [6] deals with cellular lysyl oxidase (LOX) activity, MDA-MB-231 cells. In words: Cell-based lysyl oxidase activity assay (Abcam kit). Also noted: species or system human. The following applies: read-out: cellular LOX activity. From the text: As the available LOX inhibitors are either not very potent or have toxicity, the inventors developed a robust screening pipeline shown in FIG. 28 to identify potent and safe LOX-specific and pan-LOX inhibitors. Briefly, a high-throughput cell-based LOX activity (Abcam) screen (HTS) was done for more than 5,000 drug-like compounds from the EXPRESS-Pick diversified library (4,480 molecules, ChemBridge) and Tocriscreen library of bioactive compounds (1,280 compounds, Tocris), each at a single concentration of 10 μM. […] The toxic molecules were counter screened with cell cytotoxicity assay and filtered out.
FIGS. 34. […] IC50 for cellular lysyl oxidase activity upon treatment of MDA-MB-231 cells with different LOX inhibitors. uM=microM.
For cell-based lysyl oxidase activity, fluorometric Lysly Oxidase Activity Assay Kit (Abcam, USA) was used according to manufacturer's instructions. Briefly, after the treatment, 50 μl of supernatant from each well was incubated with reagent mix and fluorescence measured in multimode-reader at Ex/Em=540/590 nm wavelength.

Data set [7] concerns the target T1, LOXL2. More on the design: Simtuzumab only targets extracellular LOXL2; host or cells: pancreatic cancer patients. The following applies: in combination with gemcitabine; cited from earlier work.

LOXL3, sequence (P58215 26-753, species assumed): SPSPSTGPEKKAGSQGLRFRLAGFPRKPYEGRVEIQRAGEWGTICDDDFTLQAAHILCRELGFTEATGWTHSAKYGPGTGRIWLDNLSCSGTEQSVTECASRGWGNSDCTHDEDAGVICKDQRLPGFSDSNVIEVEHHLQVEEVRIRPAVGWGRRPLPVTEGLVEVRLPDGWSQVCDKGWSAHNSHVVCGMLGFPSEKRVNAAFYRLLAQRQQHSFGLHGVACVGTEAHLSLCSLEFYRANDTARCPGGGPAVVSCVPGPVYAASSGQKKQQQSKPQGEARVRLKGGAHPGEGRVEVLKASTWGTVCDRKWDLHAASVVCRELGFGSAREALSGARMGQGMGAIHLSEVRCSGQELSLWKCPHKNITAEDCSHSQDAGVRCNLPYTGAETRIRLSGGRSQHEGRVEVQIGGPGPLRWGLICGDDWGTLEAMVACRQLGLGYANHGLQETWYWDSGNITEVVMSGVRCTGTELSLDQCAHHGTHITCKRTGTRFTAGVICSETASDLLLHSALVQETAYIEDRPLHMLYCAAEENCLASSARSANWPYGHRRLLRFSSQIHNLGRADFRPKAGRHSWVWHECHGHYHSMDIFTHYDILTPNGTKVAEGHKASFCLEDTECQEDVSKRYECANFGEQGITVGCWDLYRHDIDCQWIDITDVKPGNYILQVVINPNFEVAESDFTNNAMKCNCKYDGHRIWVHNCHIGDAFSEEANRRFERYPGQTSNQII

Take `CS(=O)(=O)c1cc(-c2ccccc2)cc(S(=O)(=O)c2ccc(CN)s2)c1` [CCT365623]: in the data set on breast cancer models, the metastasis entry was “reduced metastasis” and the tumor growth result is “decreased tumor growth”.

Regarding `Cc1c(-c2cccc(S(=O)(=O)N(C)C)c2)c2ncccc2n1C/C(F)=C/CN.Cl.Cl` [PXS-5153A], the enzyme inhibition result at LOXL3 is “complete and irreversible enzyme inhibition”; on LOXL2 [1], “complete and irreversible enzyme inhibition”. Further, the “LOXL2-mediated collagen oxidation and cross-linking” value in data set [2] is “reduce LOXL2-mediated collagen oxidation and cross-linking, in a dose-dependent manner”.

Turning to `NC/C=C(\F)CS(=O)(=O)c1cccc2cccnc12` [PXS-5505], in [3], the tolerability result was “well tolerated”. For the same molecule, the fibrosis entry in [4] is given as “significant reductions in fibrosis”.

On to `Cc1nc(N)sc1-c1csc(Nc2ccc(S(N)(=O)=O)cc2)n1` [compound 6405, 4-((2′-amino-4′-methyl-[4,5′-bithiazol]-2-yl)amino)benzenesulfonamide], for which the “cell viability (cytotoxicity in normal cells)” value with MCF12A, in the data set on HFF and with HUVEC was “No significant effect on the viability” throughout. In [5], the “ECM crosslinking (collagen and fibronectin staining)” value is “decrease in ECM crosslinking”.

In the case of `COCCC(=O)Nc1ccc(Nc2nc(-c3sc(N)nc3C)cs2)cc1` [compound 6425, N-[4-[[4-(2-amino-4-methyl-thiazol-5-yl)thiazol-2-yl]amino]phenyl]-3-methoxy-propanamide], the IC50 in [6] was determined as 7.5 µM.

Consider `CCCCC(=O)Nc1ccc(Nc2nc(-c3sc(N)nc3C)cs2)cc1` [compound 6426, N-[4-[[4-(2-amino-4-methyl-thiazol-5-yl)thiazol-2-yl]amino]phenyl]pentanamide], for which, in data set [6], the IC50 worked out at 2 µM.

B1: Simtuzumab: non-competitive LOXL2 targeting humanized monoclonal antibody (antibody, chains of the INN, looked up, V domains shown)
VH: QVQLVQSGAEVKKPGASVKVSCKASGYAFTYYLIEWVRQAPGQGLEWIGVINPGSGGTNYNEKFKGRATITADKSTSTAYMELSSLRSEDTAVYFCARNWMNFDYWGQGTTVTVSS
VL: DIVMTQTPLSLSVTPGQPASISCRSSKSLLHSNGNTYLYWFLQKPGQSPQFLIYRMSNLASGVPDRFSGSGSGTDFTLKISRVEAEDVGVYYCMQHLEYPYTFGGGTKVEIK
Consider B1, for which, in the data set with LOXL2 [7], the clinical benefit entry was “minimal” and the tolerability entry is on record as “well-tolerated”.

Source of the values: patent US12642791B2, “Inhibitors of lysyl oxidases” (UNIVERSITY OF SOUTH CAROLINA, priority 2021, dated 2026).
